# Results taken from PMC11859726, “HDAC/σ1R Dual-Ligand as a Targeted Melanoma Therapeutic” (Pharmaceuticals, 2025).
# Legend:
# [1] = tested on: HDAC (total HDAC activity, HCT116 cell lysates); experiment: HDAC activity colorimetric assay in HCT116 cell lysates; assay type: biochemical, human
# Protocol: (§1) HDAC activity was determined in the indicated cell lysates (50 µg proteins; 37 °C) using the non-selective HDAC Activity Colorimetric Assay kit (BioVision, Cambridge, UK), following the procedures described in previous studies. Samples were read at 405 nm with a microplate reader (Multiskan GO (Thermo Fisher Scientific, Waltham, MA, USA)), and the HDAC activity was expressed as the relative optical density (O.D.) values.
# MRC-5 cells = experiment: Cell proliferation, normal MRC-5 fibroblasts; assay type: cell-based; settings: Homo sapiens, MRC5; MRC-5 (Normal Lung Fibroblast); 48 h; mean ± SD; read-out: Antiproliferative IC50
# Protocol: (§2) Cells were seeded in 96-well plates at a cell-specific density, following quantification of cell numbers on counting chambers after trypsinization and staining with trypan blue. After seeding (72 h), at a cell confluence of ~50%, the medium was removed, and treatments were started with fresh media. Treatments, carried out in quadruplicate, lasted for 48 h. Then, the cells were fixed with 4% paraformaldehyde in PBS for 20 min and, after washing, stained with either 1% crystal violet in water or an acridine orange solution (50 µg/mL) for an additional 20 min. At the end of the incubations, cells were washed (3 times) with 100 μL/well of bidistilled water. Finally, for crystal violet assays, 100 μL of 10% acetic acid was added to each well, and the absorbance (λ = 590 nm) was measured with a Synergy HTX Bioteck spectrophotometer (BioSPX, Beersel, Belgium). For acridine orange assays, cell staining was evaluated by measuring the fluorescence (excitation 485/20 nm, emission 528/20 nm) with the Synergy HTX Bioteck reader.
# A549 cells = experiment: Cell proliferation, A549 cells; assay type: cell-based; settings: Homo sapiens; A549 (Lung Carcinoma); 48 h; mean ± SD; read-out: Antiproliferative IC50
# Protocol: as §2
# UM 92-1 cells [2] = experiment: Cell proliferation, UM 92-1 cells; assay type: cell-based, human
# Protocol: as §2
# A375 cells = experiment: Cell proliferation, CM A375 cells; assay type: cell-based, human
# Protocol: as §2
# WS1 cells = experiment: Cell proliferation, normal WS1 fibroblasts; assay type: cell-based; settings: Homo sapiens; WS1 (Normal Skin Fibroblast); 48 h; mean ± SD; read-out: Antiproliferative IC50
# Protocol: as §2
# 786-O cells = experiment: Cell proliferation, 786-O cells; assay type: cell-based; settings: Homo sapiens, 786-0; 786-O (Renal Adenocarcinoma); 48 h; mean ± SD; read-out: Antiproliferative IC50
# Protocol: as §2
# σ1R = biological target: T1, σ1R (Cavia porcellus, UniProt Q60492); experiment: σ1R radioligand binding assay ([3H]-(+)-pentazocine); parameters: species or system guinea pig
# T1 construct: using guinea pig brain membranes and appropriate radioligands; from tissue; host or cells: guinea pig brain membranes
# Protocol: (§4) Radioactivity was determined with a Beckman LS6500 scintillation counter. Inhibition constants (Ki values) were calculated with the EBDA/LIGAND program (Elsevier/Biosoft).
# [3] = tested on: HDAC enzymatic activities (MCF7, PC3, AGS cell lysates); experiment: HDAC activity colorimetric assay in other cancer cell lysates (MCF7, PC3, AGS); assay type: biochemical, human; settings: other cancer cell types (MCF7, PC3, AGS lysates) vs control
# Protocol: as §1
# T84 cells = experiment: Cell proliferation, T84 cells; assay type: cell-based, human
# Protocol: as §2
# MCF7 cells = experiment: Tumor cell spreading assay, MCF7 cells; assay type: cell-based, human; settings: 100 nM, 1 h; for inhibition of cell spreading: MCF7 cells (low σ1R); for cells flat, with protrusions, Exp 1 (%) / cells flat, with protrusions, Exp 2 (%) / cells flat, with protrusions, Exp 3 (%) / rounded cells, Exp 1 (%) / rounded cells, Exp 2 (%) / rounded cells, Exp 3 (%): MCF-7, % of total cell population
# Protocol: (§3) Adherent 92-1 and MCF-7 cells were harvested using 0.05% Trypsin-EDTA and plated in 6-well plates. After 1 h incubations with the indicated treatments, the number of cells that formed, or not, distinct protrusions (lamellipodia, filopodia) were scored with an inverted microscope (20×, EVOS cell imaging system, Thermo Fisher, Waltham, MA, USA).
# endothelial C166 cells = experiment: Tube formation assay, VEGF-A-stimulated endothelial cells; assay type: cell-based, mouse; settings: for antiangiogenic effect in the presence of pentazocine: 5 µM plus σ1R agonist pentazocine 2 μM; for antiangiogenic effect in the presence of pentazocine / antiangiogenic effect in the presence of AC927: combined score; for antiangiogenic effect in the presence of AC927: 5 µM plus σ2R antagonist AC927 2 μM; for effect on VEGF-A-stimulated angiogenesis (tube lengths, mesh areas, node numbers; words): 5 µM
# Protocol: The tube formation assay using mouse endothelial […] cells was analyzed employing Matrigel (BD, Bedford, MA, USA), as previously described. Briefly, 96-well plates coated with Matrigel (50 μL/well) were filled with 100 μL medium/well and maintained overnight. Endothelial cells were seeded at 2.5 × 10^4 cells/well and incubated (for 3 h) with VEGF-A (80 ng/mL), in the presence of the indicated treatments. Then, capillary-like structures were imaged (×4 magnification) with a CCD camera connected with an inverted EVOS microscope. Finally, ImageJ software (NIH, Bethesda, MD, USA) was employed to quantify tube formations.
# UM 92-1 cells [4] = experiment: Tumor cell spreading assay, 92-1 cells; assay type: cell-based, human; settings: 1 h; for cells flat, with protrusions, Exp 1 (%) / cells flat, with protrusions, Exp 2 (%) / cells flat, with protrusions, Exp 3 (%) / rounded cells, Exp 1 (%) / rounded cells, Exp 2 (%) / rounded cells, Exp 3 (%): 92-1, % of total cell population; for inhibition of cell spreading: UM 92-1 cells, from 100 nM
# Protocol: as §3
# σ2R = biological target: T2, σ2R (Cavia porcellus, UniProt H0V073); experiment: σ2R radioligand binding assay ([3H]-DTG); parameters: species or system guinea pig
# T2 construct: using guinea pig brain membranes and appropriate radioligands; from tissue; host or cells: guinea pig brain membranes
# T2 sequence (H0V073 1-176): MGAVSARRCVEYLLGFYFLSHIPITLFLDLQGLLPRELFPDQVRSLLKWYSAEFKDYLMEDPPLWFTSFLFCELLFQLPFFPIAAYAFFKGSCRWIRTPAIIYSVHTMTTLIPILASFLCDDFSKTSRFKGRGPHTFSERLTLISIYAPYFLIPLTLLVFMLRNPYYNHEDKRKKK
# Protocol: as §4
# T1 sequence (Q60492 whole entry): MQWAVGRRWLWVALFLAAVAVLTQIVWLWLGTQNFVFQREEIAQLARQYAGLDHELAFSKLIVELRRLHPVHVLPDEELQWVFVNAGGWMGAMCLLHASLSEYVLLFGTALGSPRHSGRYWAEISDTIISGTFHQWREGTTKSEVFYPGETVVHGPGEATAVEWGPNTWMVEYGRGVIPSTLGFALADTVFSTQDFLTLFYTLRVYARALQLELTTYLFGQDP
Compound,inhibition of cell spreading (MCF7 cells),"cells flat, with protrusions, Exp 1 (%) (MCF7 cells)","cells flat, with protrusions, Exp 2 (%) (MCF7 cells)","cells flat, with protrusions, Exp 3 (%) (MCF7 cells)","rounded cells, Exp 1 (%) (MCF7 cells)","rounded cells, Exp 2 (%) (MCF7 cells)","rounded cells, Exp 3 (%) (MCF7 cells)",antiangiogenic effect in the presence of pentazocine (endothelial C166 cells),antiangiogenic effect in the presence of AC927 (endothelial C166 cells),"effect on VEGF-A-stimulated angiogenesis (tube lengths, mesh areas, node numbers; words) (endothelial C166 cells; 3 h, VEGF-A 80 ng/mL)","cells flat, with protrusions, Exp 1 (%) (UM 92-1 cells [4]; 100 nM)","cells flat, with protrusions, Exp 2 (%) (UM 92-1 cells [4]; 100 nM)","cells flat, with protrusions, Exp 3 (%) (UM 92-1 cells [4]; 100 nM)","rounded cells, Exp 1 (%) (UM 92-1 cells [4]; 100 nM)","rounded cells, Exp 2 (%) (UM 92-1 cells [4]; 100 nM)","rounded cells, Exp 3 (%) (UM 92-1 cells [4]; 100 nM)","cells flat, with protrusions, Exp 2 (%) (UM 92-1 cells [4]; 5 µM)","cells flat, with protrusions, Exp 3 (%) (UM 92-1 cells [4]; 5 µM)","rounded cells, Exp 2 (%) (UM 92-1 cells [4]; 5 µM)","rounded cells, Exp 3 (%) (UM 92-1 cells [4]; 5 µM)",other results
"Cl.O=C(/C=C/c1ccc(CN2CCC(O)(c3ccc(Cl)cc3)CC2)cc1)NO [5c, (E)-4-(4-chlorophenyl)-4-hydroxy-1-{4-[3-(hydroxyamino)-3-oxoprop-1-en-1-yl]benzyl}piperidin-1-ium chloride]",failed to suppress,"47,13%","44,67%","39,07%","52,87%","55,33%","60,93%",completely prevented,to a significantly lesser extent than pentazocine,abrogated,"37,23%","27,77%","37,27%","62,77%","72,23%","62,73%","17,22%","33,05%","82,78%","66,95%","HDAC inhibition with respect to the vehicle control [1]: ~ 80%; IC50 ([1]; 0–20 µM, read-out: IC50 on HDAC-dependent catalytic activity): 14.6 nM; IC50 (MRC-5 cells): 157 ± 55.2 nM; IC50 (A549 cells): 118 ± 13 nM; superior antiproliferative potency in UM cells compared to normal lung fibroblasts (UM 92-1 cells [2]; 92-1 vs MRC-5 IC50): ~ 5 fold; IC50 (UM 92-1 cells [2]; Homo sapiens, 92.1 (Uveal Melanoma), 48 h, mean ± SD, read-out: Antiproliferative IC50): 24.8 ± 5.8 nM; shift to the left in antiproliferative dose–response curves compared to normal skin fibroblasts (A375 cells; CM A375, lung A549 and renal 786-O vs WS1): 8–10 fold; IC50 (A375 cells; Homo sapiens, A-375, A375 (Cutaneous Melanoma), 48 h, mean ± SD, read-out: Antiproliferative IC50): 91.5 ± 11.4 nM; IC50 (WS1 cells): 1160 ± 187 nM; IC50 (786-O cells): 150 ± 24 nM; Ki (σ1R): 19 ± 1.6 nM; fold higher affinity for σ1R than σ2R (σ1R; σ1R vs σ2R Ki): > 100 fold; suppression of resident HDAC enzymatic activities [3]: significant suppression; IC50 (T84 cells; Homo sapiens, T84 (Colorectal Carcinoma), 48 h, mean ± SD, read-out: Antiproliferative IC50): 1200 ± 381 nM; sensitivity to antitumor actions (T84 cells; colon cancer T84 cells): resistant; effect on VEGF-A-stimulated angiogenesis (endothelial C166 cells; 30 nM, 3 h, VEGF-A 80 ng/mL): without effects; cells flat, with protrusions, Exp 1 (%) (UM 92-1 cells [4]; 5 µM): 28,48%; rounded cells, Exp 1 (%) (UM 92-1 cells [4]; 5 µM): 71,52%; inhibition of cell spreading (UM 92-1 cells [4]): significant inhibition; Ki (σ2R): 2050 ± 737 nM"
"CCCC(CCC)C(=O)O[C@@H](CCCN1CCC(O)(c2ccc(Cl)cc2)CC1)c1ccc(F)cc1 [(-)-1, reference compound]",unable to significantly inhibit,"45,95%","48,03%","40,28%","54,05%","51,97%","59,72%",partially and equally blocked,partially and equally blocked,significantly inhibited,"33,84%","21,33%","34,97%","66,16%","78,67%","65,03%","13,49%","26,09%","86,51%","73,91%",inhibition of cell spreading (UM 92-1 cells [4]): reduced UM cell spreading with seemingly higher potencies
